Experiments:
HFD mice = assay: Anti-diabetic activity and side effects in HFD mice, 7 weeks; conditions: for expression of Glut4 and Adiponectin in adipose tissue (mRNA) / expression of adipogenic genes PPARγ, AP2, CD36, LPL, C/EBPa and Fasn in adipose tissue (mRNA): (S)-VSP-77 5 mg/kg i.p.
Procedure: HFD mice were injected with (S)- or (R)-VSP-77 for 7 weeks.
Laboratory Animal Co., Shanghai, China) were housed in a temperature-controlled
For chronic treatment, mice were fed high-fat diets (60% calories from fat; Research Diets, New Brunswick, NJ, USA) or standard diets ad libitum. At 14 weeks of age, mice were randomly assigned to
(5 mg/day/kg or 10 mg/kg/day), VSP-77 (5 mg/kg/day) and (S)- or (R)-VSP-77 (5 mg/kg/day) were intraperitoneally injected and INT131 (30 mg/kg/day) was orally treated. The glucose tolerance test (2 g/kg glucose i.p.) and determination of fasting blood glucose and insulin levels were performed after 6 h of starvation. At the end, the animals were anatomized and blood and tissues were collected for further

GST-PPARγ LBD = molecular target: T1, GST-PPARγ LBD (Homo sapiens, UniProt P37231); assay: LanthaScreen TR-FRET competitive binding assay, PPARγ; conditions: competition of Fluormone (5 nM); 0.5 nM GST-PPARγ LBD
T1 construct: 0.5 nM GST-PPARγ LBD was incubated with 5 nM Fluormone™; purchased Invitrogen
T1 sequence (P37231 238-503 limits assumed): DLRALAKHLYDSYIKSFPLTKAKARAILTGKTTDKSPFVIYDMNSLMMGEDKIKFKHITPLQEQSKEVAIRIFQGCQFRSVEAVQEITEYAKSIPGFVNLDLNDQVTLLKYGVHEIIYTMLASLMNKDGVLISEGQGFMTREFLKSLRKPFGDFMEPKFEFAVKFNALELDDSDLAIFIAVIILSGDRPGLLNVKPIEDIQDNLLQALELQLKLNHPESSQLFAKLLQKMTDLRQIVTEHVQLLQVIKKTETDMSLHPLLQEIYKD
Procedure: LanthaScreen™ TR-FRET assay (Invitrogen) was used for measuring the binding affinities of the ligands. 0.5 nM GST-PPARγ LBD was incubated with 5 nM Fluormone™ and Terbium-coated GST antibody.
Competitive TR -FRET binding assay
The GST PPARγ -LBD was labeled with a terbium-linked antibody and a fluorescent small molecule pan-PPAR ligand (Fluormone™ Pan-PPAR Green, Invitrogen) was used as a tracer that is displaced from the ligand binding domain upon agonist binding.
Excitation of the terbium at 340 nm results in FRET to the fluorescent tracer, with
Tracer displacment results is a loss of FRET signal between the terbium label and the fluorescent tracer.
The inhibition constant (ki) for a competitor was calculated by applying the
Cheng-Prusoff equation as following:
the tracer, [tracer] is the concentration of Fluormone™ Pan-PPAR Green used in the

PPARα = molecular target: T2, PPARα (Homo sapiens, UniProt Q07869); assay: Competitive TR-FRET assay, PPARα; conditions: at 10 μM
T2 sequence (Q07869 1-468): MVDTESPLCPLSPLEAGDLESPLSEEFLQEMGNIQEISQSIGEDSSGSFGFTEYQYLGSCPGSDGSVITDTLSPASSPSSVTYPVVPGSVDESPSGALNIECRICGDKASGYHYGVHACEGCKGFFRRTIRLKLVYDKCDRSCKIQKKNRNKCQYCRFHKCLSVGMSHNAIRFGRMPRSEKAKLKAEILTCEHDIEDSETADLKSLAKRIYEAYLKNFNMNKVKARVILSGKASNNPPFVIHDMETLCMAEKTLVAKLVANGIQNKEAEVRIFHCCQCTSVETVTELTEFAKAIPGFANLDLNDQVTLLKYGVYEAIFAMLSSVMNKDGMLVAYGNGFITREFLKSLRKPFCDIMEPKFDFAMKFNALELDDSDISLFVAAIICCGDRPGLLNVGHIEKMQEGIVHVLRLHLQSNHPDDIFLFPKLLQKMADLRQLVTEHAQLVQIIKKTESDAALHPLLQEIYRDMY

[1] = molecular target: hERG potassium ion channel (Homo sapiens, UniProt Q12809); design: method as in PMID 23054723; conditions: read-out: hERG inhibition IC50; cited from earlier work
hERG potassium ion channel, sequence (Q12809 whole entry): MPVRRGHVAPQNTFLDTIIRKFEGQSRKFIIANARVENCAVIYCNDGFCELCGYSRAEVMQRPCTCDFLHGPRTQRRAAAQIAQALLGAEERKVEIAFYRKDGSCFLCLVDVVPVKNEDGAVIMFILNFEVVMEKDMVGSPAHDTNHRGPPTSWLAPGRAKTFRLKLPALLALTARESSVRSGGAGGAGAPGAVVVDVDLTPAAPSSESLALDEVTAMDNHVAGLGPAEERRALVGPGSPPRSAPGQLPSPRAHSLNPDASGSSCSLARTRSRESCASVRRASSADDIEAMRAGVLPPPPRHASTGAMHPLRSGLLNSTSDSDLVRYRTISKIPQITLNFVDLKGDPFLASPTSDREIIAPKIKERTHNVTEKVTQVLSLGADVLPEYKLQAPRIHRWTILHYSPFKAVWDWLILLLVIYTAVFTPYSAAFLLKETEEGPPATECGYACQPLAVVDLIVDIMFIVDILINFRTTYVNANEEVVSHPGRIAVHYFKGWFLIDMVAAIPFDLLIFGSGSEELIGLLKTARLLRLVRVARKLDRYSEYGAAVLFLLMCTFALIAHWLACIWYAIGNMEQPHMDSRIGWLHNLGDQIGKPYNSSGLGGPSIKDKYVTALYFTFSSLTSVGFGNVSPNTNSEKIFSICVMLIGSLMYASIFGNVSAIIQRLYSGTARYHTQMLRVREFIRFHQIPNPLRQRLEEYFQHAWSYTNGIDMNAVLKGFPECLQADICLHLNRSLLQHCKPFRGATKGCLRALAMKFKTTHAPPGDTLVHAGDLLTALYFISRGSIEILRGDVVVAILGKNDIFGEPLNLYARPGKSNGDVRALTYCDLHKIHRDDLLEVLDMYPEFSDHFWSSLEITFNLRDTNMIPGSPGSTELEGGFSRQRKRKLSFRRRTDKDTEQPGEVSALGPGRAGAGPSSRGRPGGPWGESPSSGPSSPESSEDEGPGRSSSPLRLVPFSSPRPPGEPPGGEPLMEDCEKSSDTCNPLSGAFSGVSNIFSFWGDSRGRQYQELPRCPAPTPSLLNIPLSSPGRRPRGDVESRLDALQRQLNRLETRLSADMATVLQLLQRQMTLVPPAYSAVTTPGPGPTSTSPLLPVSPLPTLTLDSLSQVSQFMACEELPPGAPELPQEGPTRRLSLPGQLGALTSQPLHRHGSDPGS

3T3-L1 cells [2] = assay: 3T3-L1 adipocyte differentiation assay (Oil Red O staining); type: cell-based, mouse; conditions: Rosi 10 μM; 2 days
Procedure: One of the best documented side-effects of the PPARγ agonist drugs is weight gain as PPARγ is the key activator of adipogenesis. To determine whether VSP-77 promotes adipogenesis, we treated mouse fibroblast 3T3-L1 cells with 100 μM of VSP-77. […] Cells were incubated with Oil Red O, which stains adipocytes red.
Fig. 6 3T3-L1 adipocyte differentiation assay. Oil Red O staining of 3T3-L1 fibroblast cells after differentiating with different ligands for 2 days. […]
Adipocyte differentiation assay
The adipocyte differentiation assay was performed with NIH 3T3-L1 preadipocytes obtained from ATCC. The 3T3-L1 preadipocytes were maintained in DMEM containing 10% FBS and antibiotics. For differentiation DMI (Dexamethazone 1 μM, 3-isobutyl-1-methyxanthine (IBMX) 0.5 mM and Insulin167 nM) and 10 μM of rosiglitazone were used as positive controls for the assay. VSP-77 was used at a 100 μM concentration. All the treatments have insulin at 167 nM concentration. Media with DMSO was used as a negative control. Differentiation was induced by treating post-confluent cultures with media containing the respective ligands for two days.
Cells were stained with Oil Red O to estimate the lipid accumulation. The images were analyzed using ImageJ (National Institutes of Health). […]

3T3-L1 cells [3] = assay: qPCR of adipogenic genes in 3T3-L1 cells; type: cell-based, mouse; conditions: 7 days after treatment
Procedure: Encouraged by the above results and to further determine whether VSP-77 activates PPARγ in 3T3-L1 cells, we evaluated the ability of VSP-77 to stimulate PPARγ activity by measuring the mRNA levels of endogenous PPARγ-regulated downstream genes linked to adipogenesis (primers are listed in Table S1 ^†).
Fig. 7 Expression of adipogenic genes in 3T3-L1 cells was analyzed by quantitative PCR (qPCR). Relative mRNA levels of the adipocyte differentiation genes PPARγ, aP2, CD36, LPL, C/EBPα and Fasn. mRNA was extracted from differentiating cells 7 days after treatment (n = 3, error bars = SEM). […]
(average±standard deviation calculated from three separate experiments). […]
Cells were stained with Oil Red O to estimate the lipid accumulation. The images were analyzed using ImageJ (National Institutes of Health).
For real-time PCR analysis, 1-2 μg total RNA was reverse-transcribed using the SuperScript cDNA Reverse Transcription Kit (Invitrogen) with SYBR Green PCR Master Mix (Invitrogen) and gene specific primers (Table S1) using a Roche Light Cycler 480 machine. The relative expression of mRNA was determined after normalization to β-actin level using the ΔΔ-Ct method. […]

What does the source list for CCCCCCC[C@H](OCC(=O)O)c1ccc(Cl)cc1 [(S)-VSP-77]?
CDK5-mediated Ser-273 phosphorylation of PPARγ in white adipose tissue (HFD mice; 5 mg/kg i.p.): effectively blocked; fasting glucose levels (HFD mice; 5 mg/kg i.p.): significant reduction; fasting insulin levels (HFD mice; 5 mg/kg i.p.): significant reduction; fluid retention (HFD mice; 5 mg/kg i.p.): does not promote; expression of Glut4 and Adiponectin in adipose tissue (mRNA) (HFD mice; Rosi 10 mg/kg i.p.): increased; expression of adipogenic genes PPARγ, AP2, CD36, LPL, C/EBPa and Fasn in adipose tissue (mRNA) (HFD mice; Rosi 10 mg/kg i.p.): weakly induced

For CCCCCCCCCC(=O)O [DA, decanoic acid, reference compound], which Ki (GST-PPARγ LBD) is on record?
Its Ki is 50.5 µM.

With CC(C)(Sc1ccc(CCN(CCCCC2CCCCC2)C(=O)NC2CCCCC2)cc1)C(=O)O [GW7647, reference compound] as the compound, how does the “binding capability for PPARα” value (PPARα) read?
The value was about 100%.

For CN(CCOc1ccc(CC2SC(=O)NC2=O)cc1)c1ccccn1 (centres unmarked) [Rosi, rosiglitazone, reference compound], which body weight gain (HFD mice; (S)-/(R)-VSP-77 5 mg/kg i.p., Rosi 10 mg/kg i.p.) is on record?
The body weight gain was “observed”.

What about the “expression of Glut4 and Adiponectin in adipose tissue (mRNA)” value (HFD mice; Rosi 10 mg/kg i.p.) of the same compound?
The value was “increased”.

What about the “expression of adipogenic genes PPARγ, AP2, CD36, LPL, C/EBPa and Fasn in adipose tissue (mRNA)” value (HFD mice; Rosi 10 mg/kg i.p.) of the same compound?
The value was “robustly stimulated”.

And the IC50 [1]?
Its IC50 is 18.8 µM.

And the “% Area stained by Oil Red O” value (3T3-L1 cells [2])?
The value was 37%.

And the “expression of adipogenic genes PPARγ, aP2, CD36, LPL, C/EBPα and Fasn (mRNA)” value (3T3-L1 cells [3])?
The value was “robustly induced”.

Source: PMC7059199, “Identification and structural insight of an effective PPARγ modulator with improved therapeutic index for anti-diabetic drug discovery” (Chemical Science, 2020)
